Laboratory results from patent US4173648A, “3β-Hydroxy-18β-olean-9-en-30-oic acids” (I.S.F. SpA, priority 1977, dated 1979).
Where a name gives a salt, the structure may show the parent alone.

Key:
male Swiss mice = assay: anti-ulcer action, cold stress by immersion in water and contention stress (method of C. J. Pfeiffer); format: in vivo, mouse (Swiss); conditions: controls = 100
Method: The test was carried out on male Swiss mice with an average body weight of 23 g. subjected to cold stress by immersion in water and to a contention stress according to the method of C. J. Pfeiffer ("Peptic ulcer", Munksgaard, 1971, page 84). Three dosage levels of 25, 50 and 100 mg/kg and 15 animals for each dosage level were used.
The anti-ulcer action of the compounds was evaluated by calculating the percentage average inhibition, which indicates the inhibition of the ulcer seriousness index in the treated animals, taking 100 as the seriousness index of the controls.

[1] = LD50 in mice per os (acute toxicity); conditions: mouse, in vivo, po
male Wistar rats = assay: anti-diuretic action, urinary sodium and potassium (method of F. M. Sullivan); format: in vivo, rat (Wistar); conditions: for Na+/K+ ratio (urine): gastric probe, urine of five hours after treatment; for % inhibition of the ratio Na+/K+: ratio in controls = 100
Method: The urine produced in the five hours after treatment are collected and the potassium and sodium contents are determined. The tests were carried out at two dosage levels, 30 and 60 mg/kg, using, for each dosage level, 8 pairs of animals.

CC1(C)[C@@H](OC(=O)CCC(=O)O)CC[C@]2(C)C3=CCC4[C@@H]5C[C@@](C)(C(=O)O)CC[C@]5(C)CC[C@@]4(C)[C@]3(C)CC[C@@H]12 (stereo partly drawn) [Disodium salt of 3β-(3-carboxypropionoxy)-18β-olean-9-en-30-oic acid]
% average inhibition (of the ulcer seriousness index) (male Swiss mice; 25 mg/kg os): 13%
% average inhibition (of the ulcer seriousness index) (male Swiss mice; 50 mg/kg os): 22.5%
% average inhibition (of the ulcer seriousness index) (male Swiss mice; 100 mg/kg os): 70.5%
LD50 [1]: 1000 mg/kg
Na+/K+ ratio (urine) (male Wistar rats; 30 mg/kg): 3.18
% inhibition of the ratio Na+/K+ (male Wistar rats; 30 mg/kg): 0%
Na+/K+ ratio (urine) (male Wistar rats; 60 mg/kg): 3.59
% inhibition of the ratio Na+/K+ (male Wistar rats; 60 mg/kg): -3%

CC1(C)[C@@H](OC(=O)CCC(=O)O)CC[C@]2(C)[C@H]3C(=O)C=C4[C@@H]5C[C@@](C)(C(=O)O)CC[C@]5(C)CC[C@@]4(C)[C@]3(C)CC[C@@H]12 [carbenoxolone, disodium salt of glycycrrhetinic acid 3-hemisuccinate]
% average inhibition (of the ulcer seriousness index) (male Swiss mice; 25 mg/kg os): 29.5%
% average inhibition (of the ulcer seriousness index) (male Swiss mice; 50 mg/kg os): 29%
% average inhibition (of the ulcer seriousness index) (male Swiss mice; 100 mg/kg os): 63.5%
LD50 [1]: 700 mg/kg
Na+/K+ ratio (urine) (male Wistar rats; 30 mg/kg): 1.81
% inhibition of the ratio Na+/K+ (male Wistar rats; 30 mg/kg): 43%
Na+/K+ ratio (urine) (male Wistar rats; 60 mg/kg): 1.24
% inhibition of the ratio Na+/K+ (male Wistar rats; 60 mg/kg): 64%
